Here are results for 20 compounds from ChEMBL document CHEMBL3217647, “Prospective use of molecular field points in ligand-based virtual screening: efficient identification of new reversible Cdc25 inhibitors” (Medchemcomm, 2013).

Structures are written as SMILES.

For test [1], the target named is T1, M-phase inducer phosphatase 3 (Homo sapiens, UniProt P30307).
T1 sequence (P30307 whole entry): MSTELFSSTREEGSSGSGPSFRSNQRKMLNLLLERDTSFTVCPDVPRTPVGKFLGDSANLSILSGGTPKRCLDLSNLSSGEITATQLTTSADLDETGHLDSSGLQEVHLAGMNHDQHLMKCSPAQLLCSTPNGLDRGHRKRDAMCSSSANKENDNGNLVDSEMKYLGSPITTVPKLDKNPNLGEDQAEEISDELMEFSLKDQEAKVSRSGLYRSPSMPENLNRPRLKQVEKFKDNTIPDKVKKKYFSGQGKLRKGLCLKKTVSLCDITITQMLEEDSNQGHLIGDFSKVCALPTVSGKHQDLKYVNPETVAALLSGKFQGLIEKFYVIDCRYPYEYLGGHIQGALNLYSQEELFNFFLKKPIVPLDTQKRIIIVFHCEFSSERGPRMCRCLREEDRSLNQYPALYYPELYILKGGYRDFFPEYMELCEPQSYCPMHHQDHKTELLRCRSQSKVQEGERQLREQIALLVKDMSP
In words: Inhibition of Cdc25C (unknown origin) phosphatase activity assessed as fluorescence by BMG plate reader in the absence of detergent.

In test [2] the target is T1, M-phase inducer phosphatase 3. In words: Inhibition of Cdc25C (unknown origin) phosphatase activity assessed as fluorescence by BMG plate reader in the presence of 0.005% Tween-20.
In test [3] the target is T2, Tyrosine-protein phosphatase non-receptor type 1 (Homo sapiens) (UniProt P18031).
T2 sequence (whole entry): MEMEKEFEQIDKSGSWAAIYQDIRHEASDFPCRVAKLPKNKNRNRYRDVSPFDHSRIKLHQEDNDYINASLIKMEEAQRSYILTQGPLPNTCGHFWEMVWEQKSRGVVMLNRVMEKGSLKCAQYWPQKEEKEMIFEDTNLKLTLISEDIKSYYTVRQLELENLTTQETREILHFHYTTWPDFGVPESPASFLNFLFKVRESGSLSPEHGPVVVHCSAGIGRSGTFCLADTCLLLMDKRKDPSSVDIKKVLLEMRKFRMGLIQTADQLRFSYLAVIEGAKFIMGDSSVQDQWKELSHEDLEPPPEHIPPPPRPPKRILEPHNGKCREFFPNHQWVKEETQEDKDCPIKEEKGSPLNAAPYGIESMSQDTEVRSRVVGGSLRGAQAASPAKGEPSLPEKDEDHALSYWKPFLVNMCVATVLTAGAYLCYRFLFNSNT
In words: Inhibition of PTP1B (unknown origin) phosphatase activity assessed as fluorescence at 100 uM by BMG plate reader in the presence of 0.005% Tween-20.

Test [4] has as its target T3, Dual specificity protein phosphatase 3 (Homo sapiens, UniProt P51452). In words: Inhibition of human His-tagged VHR phosphatase activity assessed as fluorescence by BMG plate reader in the presence of 0.005% Tween-20.
The species entered for test [5] is Homo sapiens. In words: Inhibition of MKP-5/p38 (unknown origin) phosphatase activity assessed as fluorescence at 100 uM by BMG plate reader in the presence of 0.005% Tween-20.
Test [6] has as its target T3, Dual specificity protein phosphatase 3. As to the kind of experiment: Inhibition of human His-tagged VHR phosphatase activity assessed as fluorescence by BMG plate reader in the absence of detergent.
The target in test [7] is T4, M-phase inducer phosphatase 2 (Homo sapiens, UniProt P30305).
T4 sequence (P30305 whole entry): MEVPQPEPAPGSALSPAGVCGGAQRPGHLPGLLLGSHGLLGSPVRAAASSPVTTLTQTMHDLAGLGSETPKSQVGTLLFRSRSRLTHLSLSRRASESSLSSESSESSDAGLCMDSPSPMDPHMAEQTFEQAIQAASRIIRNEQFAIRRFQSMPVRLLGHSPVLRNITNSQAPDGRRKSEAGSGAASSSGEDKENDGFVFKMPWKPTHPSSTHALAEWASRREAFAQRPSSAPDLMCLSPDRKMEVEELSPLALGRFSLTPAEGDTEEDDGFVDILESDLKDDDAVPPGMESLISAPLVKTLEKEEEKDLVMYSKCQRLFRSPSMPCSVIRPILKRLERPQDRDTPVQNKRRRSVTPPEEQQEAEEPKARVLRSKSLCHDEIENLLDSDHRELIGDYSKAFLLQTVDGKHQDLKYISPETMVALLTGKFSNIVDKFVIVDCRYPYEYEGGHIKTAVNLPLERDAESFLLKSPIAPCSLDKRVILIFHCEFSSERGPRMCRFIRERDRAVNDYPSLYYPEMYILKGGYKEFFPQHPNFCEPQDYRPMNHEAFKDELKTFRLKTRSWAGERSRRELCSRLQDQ
As to the kind of experiment: Inhibition of Cdc25B (unknown origin) phosphatase activity assessed as fluorescence by BMG plate reader in the absence of detergent.

The species entered for test [8] is Homo sapiens. In words: Inhibition of alkaline phosphatase (unknown origin) phosphatase activity assessed as fluorescence at 100 uM by BMG plate reader in the presence of 0.005% Tween-20.
Test [9] deals with T5, M-phase inducer phosphatase 1 (Homo sapiens, UniProt P30304).
T5 sequence (P30304 whole entry): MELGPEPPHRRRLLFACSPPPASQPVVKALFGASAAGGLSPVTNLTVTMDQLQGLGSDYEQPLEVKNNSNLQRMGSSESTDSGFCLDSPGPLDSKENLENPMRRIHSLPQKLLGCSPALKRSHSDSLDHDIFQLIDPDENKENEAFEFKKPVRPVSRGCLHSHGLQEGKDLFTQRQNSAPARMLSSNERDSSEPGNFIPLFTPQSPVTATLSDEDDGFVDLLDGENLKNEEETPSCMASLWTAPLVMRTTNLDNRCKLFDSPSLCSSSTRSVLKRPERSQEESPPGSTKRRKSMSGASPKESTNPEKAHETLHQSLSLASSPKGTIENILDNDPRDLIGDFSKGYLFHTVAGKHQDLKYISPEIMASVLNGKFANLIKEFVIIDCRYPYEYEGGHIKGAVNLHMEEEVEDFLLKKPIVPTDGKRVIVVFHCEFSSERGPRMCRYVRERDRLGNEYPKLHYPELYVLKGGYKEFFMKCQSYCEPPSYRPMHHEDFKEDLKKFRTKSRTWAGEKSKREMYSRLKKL
As to the kind of experiment: Inhibition of Cdc25A (unknown origin) phosphatase activity assessed as fluorescence by BMG plate reader in the absence of detergent.

Test [10] concerns the target T5, M-phase inducer phosphatase 1. In words: Inhibition of Cdc25A (unknown origin) phosphatase activity assessed as fluorescence by BMG plate reader in the presence of 0.005% Tween-20.
In test [11] the target is T4, M-phase inducer phosphatase 2. As to the kind of experiment: Inhibition of Cdc25B (unknown origin) phosphatase activity assessed as fluorescence by BMG plate reader in the presence of 0.005% Tween-20.

T3 sequence (P51452 whole entry): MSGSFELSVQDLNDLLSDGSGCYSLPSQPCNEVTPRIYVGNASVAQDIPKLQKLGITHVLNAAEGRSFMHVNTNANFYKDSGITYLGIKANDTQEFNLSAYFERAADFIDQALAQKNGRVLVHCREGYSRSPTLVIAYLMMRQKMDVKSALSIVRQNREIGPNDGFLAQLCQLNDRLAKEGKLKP

For the compound `COc1ccccc1-c1nc(-c2ccc3c(c2)CCN3S(C)(=O)=O)cs1`, the IC50 in test [1] was found to be 14.2 µM; in [2], 42.6 µM; in [4] it was 40.2 µM; in [6] it was 2.7 µM; in test [7] it was 10.1 µM; in [9], 4 µM. Also, the results for the IC50 in test [10] and in test [11] were 41.7 µM and 31.3 µM, respectively. For the same compound, the inhibition (in test [3]; in the test listed under Homo sapiens [5]; in the test listed under Homo sapiens [8]) was less than 50% throughout.
For the compound `O=C(Nc1cccc(-c2csc(-c3ccccc3)n2)c1)c1cccc(=O)[nH]1`, the IC50 is 8.6 µM in test [2], more than 100 µM in test [4], 6.9 µM in [10] and 4.2 µM in test [11].
In the case of `CCOc1ccc(-c2nn(-c3ccccc3)cc2/C=C2\SC(=O)N(C)C2=O)cc1Br`, in [11], the IC50 was 2 µM.
Regarding `O=C(Nc1nc(-c2ccc(F)cc2)cs1)c1cnccn1`, the IC50 is 40 µM in test [2], more than 100 µM in [4], 25.7 µM in test [10] and 16 µM in test [11].
As for `O=C(CCC(=O)NC1CCCC1)Nc1nc(-c2cc3ccccc3oc2=O)cs1`, the IC50 in [2] turned out to be 9.4 µM; in [4], 24.9 µM; in [10] it was 12.3 µM; in test [11], 5.9 µM.
Turning to `CCOc1ccc(-c2nc(-c3ccc4[nH]c(=O)[nH]c4c3)cs2)cc1`, the IC50 in test [1] is 10.2 µM; in [2], 47.3 µM; in test [4], 20.1 µM; in [6], 1.9 µM; in test [7], 8.9 µM; in test [9], 2.4 µM. Besides, the IC50 in test [10] was 23.6 µM; in test [11], 17.9 µM. Moreover, the inhibition (in test [3]; in the test listed under Homo sapiens [5]; in the test filed under Homo sapiens [8]) was less than 50% in each case.
For the compound `CCOc1ccc(-c2nc(-c3ccc4ccccc4c3)cs2)cc1`, the IC50 was 31.5 µM in test [1]; 71.5 µM in [2]; 61 µM in test [4]; 4.4 µM in test [6]; 13.6 µM in [7]; 13 µM in [9]. Also, the IC50 in [10] was 30 µM; in [11], more than 100 µM. The inhibition (in test [3]; in the test filed under Homo sapiens [5]; in the test filed under Homo sapiens [8]) was less than 50% each time.
With `COc1ccc(-c2csc(-c3cccc(NC(=O)C4CC4)c3)n2)cc1`, the IC50 in test [1] is 16.8 µM; in test [2], 42.2 µM; in test [4], more than 100 µM; in test [6] it was 8.9 µM; in test [7], 14.9 µM; in [9] it was 10.2 µM. Besides, the IC50 in [10] and in test [11] was more than 100 µM in each case.
Take `COc1ccc(-c2nc(-c3ccc4c(c3)CCN4S(C)(=O)=O)cs2)cc1`: the IC50 stood at 18 µM in test [1]; 42.5 µM in test [2]; 45.4 µM in test [4]; 8.1 µM in [6]; 17.5 µM in test [7]; 6.5 µM in [9]. The IC50 came to 42.9 µM in test [10] and 26.1 µM in test [11]. Besides, the inhibition (in test [3]; in the test listed under Homo sapiens [5]; in the test filed under Homo sapiens [8]) was less than 50% in each case.
As for `O=c1[nH]c2cc(S(=O)(=O)Nc3cccc(-c4csc(-c5ccccc5)n4)c3)ccc2o1`, the IC50 is 44.4 µM in test [2], 34.8 µM in test [4], 2.2 µM in test [10] and 3.5 µM in [11].
In the case of `CCOC(=O)C1=C(C)N=c2s/c(=C\c3ccc(O)cc3)c(=O)n2C1c1ccc2c(c1)OCO2` (stereo not given), the IC50 in test [11] is 13 µM.
For the compound `Cc1cccc(-c2nc(-c3ccc4c(c3)CCN4S(C)(=O)=O)cs2)c1`, the IC50 in test [1] is 24.3 µM; in test [2], 37.8 µM; in test [4], 40.1 µM; in test [6] it was 8 µM; in [7] it was 19 µM; in [9], 5.6 µM. Also, the IC50 in test [10] stood at 31.8 µM; in test [11], 34.4 µM. Further, the inhibition (in test [3]; in the test filed under Homo sapiens [5]; in the test filed under Homo sapiens [8]) was less than 50% throughout.
With `O=C(/C=C/c1ccc2c(c1)OCO2)Nc1nc(-c2ccc(F)cc2F)cs1`, the IC50 in test [2] was determined as 11 µM; in [4], 65.7 µM; in test [10] it was 7.5 µM; in test [11], 2.69 µM.
Turning to `COc1ccc(-c2nc(C(=O)Nc3ccc[nH]c3=O)cs2)cc1`, the half-maximal inhibitory concentration (IC50) in [4] is more than 100 µM; in test [10], 17.5 µM; in test [11] it was 6.8 µM.
For `N#Cc1ccc(-c2csc(-c3ccc(-c4csnn4)cc3)n2)cc1`, the IC50 in test [2] is 8.8 µM; in [4] it was more than 100 µM; in [10] it was 12.2 µM; in test [11], 3.1 µM.
`O=S(=O)(Cc1ccco1)Cc1nc(-c2ccc(-c3ccccc3)cc2)cs1`: the IC50 in test [2] turned out to be 9.7 µM; in [4], 26 µM; in test [10] it was 2.7 µM; in [11], 1.7 µM.
As for `O=C(Nc1cccc(-c2csc(-c3ccccc3)n2)c1)c1ccco1`, the IC50 was more than 100 µM in [1]; more than 100 µM in test [2]; more than 100 µM in test [4]; 26.1 µM in test [6]; more than 100 µM in test [7]; 17.8 µM in [9]. The IC50 in test [10] and in [11] was more than 100 µM throughout.
Take `O=C(CCC(=O)Nc1nc(-c2cc3ccccc3oc2=O)cs1)NCc1ccc2c(c1)OCO2`: the IC50 in test [2] is 8.2 µM; in [4], 17 µM; in test [10], 20.1 µM; in [11], 0.9 µM.
Taken in the same sequence, the figures for `COc1ccc(-c2nc(-c3cnc(N)nc3)cs2)cc1` were more than 100 µM, more than 100 µM, 25 µM and 19.7 µM.
For `O=C1C(=O)c2c(C(=O)c3ccccc3)coc2-c2ccccc21`, the IC50 in [2], in [10] and in [11] was 5 µM each time.

Broadly, the IC50 is the concentration at which inhibition is half-maximal. As usually defined, the inhibition is the percentage by which the read-out fell short of the control.
